Assay results: PubChem BioAssay (NCI)
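The compound was tested at five concentrations on cells cultured in 96-well plates, with a 48-hour exposure period. TGI denotes the concentration required for complete inhibition of growth.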

Key:
Test in all cases: growth of human tumour cells (NCI), 48 h
MCF7 breast = tested on: MCF7 breast
MDA-N = tested on: MDA-N
COLO 205 colon = tested on: COLO 205 colon
OVCAR-3 ovarian = tested on: OVCAR-3 ovarian
NCI-H23 lung = tested on: NCI-H23 lung
MDA-MB-435 = tested on: MDA-MB-435
U251 CNS = tested on: U251 CNS
PC-3 prostate = tested on: PC-3 prostate
SNB-75 CNS = tested on: SNB-75 CNS
HT29 colon = tested on: HT29 colon
NCI-H522 lung = tested on: NCI-H522 lung
NCI-H226 lung = tested on: NCI-H226 lung
K-562 leukemia = tested on: K-562 leukemia
SF-268 CNS = tested on: SF-268 CNS
TK-10 renal = tested on: TK-10 renal
NCI-H460 lung = tested on: NCI-H460 lung
HS 578T breast = tested on: HS 578T breast
A549 NSCLC = tested on: A549 NSCLC
UACC-62 melanoma = tested on: UACC-62 melanoma
OVCAR-8 ovarian = tested on: OVCAR-8 ovarian
T-47D breast = tested on: T-47D breast
SK-MEL-5 melanoma = tested on: SK-MEL-5 melanoma
HCT-15 colon = tested on: HCT-15 colon
LOX IMVI melanoma = tested on: LOX IMVI melanoma
RPMI-8226 leukemia = tested on: RPMI-8226 leukemia
SK-MEL-2 melanoma = tested on: SK-MEL-2 melanoma
RXF 393 renal = tested on: RXF 393 renal
SK-MEL-28 melanoma = tested on: SK-MEL-28 melanoma
DU-145 prostate = tested on: DU-145 prostate
SNB-19 CNS = tested on: SNB-19 CNS
SF-539 CNS = tested on: SF-539 CNS
HL-60(TB) leukemia = tested on: HL-60(TB) leukemia
SK-OV-3 ovarian = tested on: SK-OV-3 ovarian
M14 melanoma = tested on: M14 melanoma
UACC-257 melanoma = tested on: UACC-257 melanoma
SW-620 colon = tested on: SW-620 colon
CCRF-CEM leukemia = tested on: CCRF-CEM leukemia
IGROV1 ovarian = tested on: IGROV1 ovarian
EKVX NSCLC = tested on: EKVX NSCLC
ACHN renal = tested on: ACHN renal
MALME-3M melanoma = tested on: MALME-3M melanoma
SF-295 CNS = tested on: SF-295 CNS
A498 renal = tested on: A498 renal
OVCAR-5 ovarian = tested on: OVCAR-5 ovarian
OVCAR-4 ovarian = tested on: OVCAR-4 ovarian
HOP-62 NSCLC = tested on: HOP-62 NSCLC
SN12C renal = tested on: SN12C renal
HCC-2998 colon = tested on: HCC-2998 colon
KM12 colon = tested on: KM12 colon
MOLT-4 leukemia = tested on: MOLT-4 leukemia
UO-31 renal = tested on: UO-31 renal
MDA-MB-231 breast = tested on: MDA-MB-231 breast
HCT-116 colon = tested on: HCT-116 colon
CAKI-1 renal = tested on: CAKI-1 renal
786-0 renal = tested on: 786-0 renal
HOP-92 NSCLC = tested on: HOP-92 NSCLC
SR leukemia = tested on: SR leukemia
NCI/ADR-RES ovarian = tested on: NCI/ADR-RES ovarian

C=C(CN(C)C)C1(c2ccccc2)CC2(CCCC2)C(=O)O1 (configuration not stated)
TGI (MCF7 breast): > 100 µM | TGI (MDA-N): > 100 µM | TGI (COLO 205 colon): 74.7 µM | TGI (OVCAR-3 ovarian): > 100 µM | TGI (NCI-H23 lung): 82.4 µM | TGI (MDA-MB-435): > 100 µM | TGI (U251 CNS): > 100 µM | TGI (PC-3 prostate): > 100 µM | TGI (SNB-75 CNS): > 100 µM | TGI (HT29 colon): 74.7 µM | TGI (NCI-H522 lung): 47.5 µM | TGI (NCI-H226 lung): > 100 µM | TGI (K-562 leukemia): > 100 µM | TGI (SF-268 CNS): > 100 µM | TGI (TK-10 renal): > 100 µM | TGI (NCI-H460 lung): > 100 µM | TGI (HS 578T breast): > 100 µM | TGI (A549 NSCLC): > 100 µM | TGI (UACC-62 melanoma): > 100 µM | TGI (OVCAR-8 ovarian): > 100 µM | TGI (T-47D breast): > 100 µM | TGI (SK-MEL-5 melanoma): > 100 µM | TGI (HCT-15 colon): > 100 µM | TGI (LOX IMVI melanoma): > 100 µM | TGI (RPMI-8226 leukemia): > 100 µM | TGI (SK-MEL-2 melanoma): > 100 µM | TGI (RXF 393 renal): > 100 µM | TGI (SK-MEL-28 melanoma): > 100 µM | TGI (DU-145 prostate): > 100 µM | TGI (SNB-19 CNS): > 100 µM | TGI (SF-539 CNS): > 100 µM | TGI (HL-60(TB) leukemia): 53.8 µM | TGI (SK-OV-3 ovarian): > 100 µM | TGI (M14 melanoma): > 100 µM | TGI (UACC-257 melanoma): > 100 µM | TGI (SW-620 colon): > 100 µM | TGI (CCRF-CEM leukemia): 53.4 µM | TGI (IGROV1 ovarian): > 100 µM | TGI (EKVX NSCLC): > 100 µM | TGI (ACHN renal): > 100 µM | TGI (MALME-3M melanoma): > 100 µM | TGI (SF-295 CNS): > 100 µM | TGI (A498 renal): > 100 µM | TGI (OVCAR-5 ovarian): > 100 µM | TGI (OVCAR-4 ovarian): > 100 µM | TGI (HOP-62 NSCLC): > 100 µM | TGI (SN12C renal): > 100 µM | TGI (HCC-2998 colon): > 100 µM | TGI (KM12 colon): > 100 µM | TGI (MOLT-4 leukemia): 78.1 µM | TGI (UO-31 renal): 62.9 µM | TGI (MDA-MB-231 breast): > 100 µM | TGI (HCT-116 colon): > 100 µM | TGI (CAKI-1 renal): > 100 µM | TGI (786-0 renal): > 100 µM | TGI (HOP-92 NSCLC): 56.1 µM

COc1ccc2cc(C(=O)Nc3ccc(O)c(C(=O)O)c3)ccc2c1OC
TGI (MCF7 breast): > 100 µM | TGI (MDA-N): > 100 µM | TGI (OVCAR-3 ovarian): > 100 µM | TGI (NCI-H23 lung): > 100 µM | TGI (MDA-MB-435): > 100 µM | TGI (U251 CNS): > 100 µM | TGI (PC-3 prostate): > 100 µM | TGI (SR leukemia): > 100 µM | TGI (SNB-75 CNS): > 100 µM | TGI (HT29 colon): > 100 µM | TGI (NCI-H522 lung): > 100 µM | TGI (NCI-H226 lung): > 100 µM | TGI (K-562 leukemia): > 100 µM | TGI (SF-268 CNS): > 100 µM | TGI (TK-10 renal): > 100 µM | TGI (NCI-H460 lung): > 100 µM | TGI (UACC-62 melanoma): > 100 µM | TGI (OVCAR-8 ovarian): > 100 µM | TGI (T-47D breast): > 100 µM | TGI (SK-MEL-5 melanoma): > 100 µM | TGI (HCT-15 colon): > 100 µM | TGI (LOX IMVI melanoma): > 100 µM | TGI (RPMI-8226 leukemia): > 100 µM | TGI (SK-MEL-2 melanoma): > 100 µM | TGI (SK-MEL-28 melanoma): > 100 µM | TGI (DU-145 prostate): > 100 µM | TGI (SNB-19 CNS): > 100 µM | TGI (SF-539 CNS): > 100 µM | TGI (HL-60(TB) leukemia): > 100 µM | TGI (SK-OV-3 ovarian): > 100 µM | TGI (M14 melanoma): > 100 µM | TGI (UACC-257 melanoma): > 100 µM | TGI (SW-620 colon): > 100 µM | TGI (CCRF-CEM leukemia): > 100 µM | TGI (IGROV1 ovarian): > 100 µM | TGI (EKVX NSCLC): > 100 µM | TGI (ACHN renal): > 100 µM | TGI (MALME-3M melanoma): > 100 µM | TGI (OVCAR-5 ovarian): > 100 µM | TGI (OVCAR-4 ovarian): > 100 µM | TGI (NCI/ADR-RES ovarian): > 100 µM | TGI (HOP-62 NSCLC): > 100 µM | TGI (SN12C renal): > 100 µM | TGI (HCC-2998 colon): > 100 µM | TGI (KM12 colon): > 100 µM | TGI (MOLT-4 leukemia): > 100 µM | TGI (UO-31 renal): > 100 µM | TGI (MDA-MB-231 breast): > 100 µM | TGI (HCT-116 colon): > 100 µM | TGI (CAKI-1 renal): > 100 µM | TGI (786-0 renal): > 100 µM

O=C(N=Nc1ccc(Br)cc1)NNc1ccc(Br)cc1
TGI (MCF7 breast): 40.8 µM | TGI (MDA-N): 64.7 µM | TGI (COLO 205 colon): 48.9 µM | TGI (OVCAR-3 ovarian): 30.5 µM | TGI (NCI-H23 lung): 68.9 µM | TGI (MDA-MB-435): 46.1 µM | TGI (U251 CNS): 34.7 µM | TGI (PC-3 prostate): 31.9 µM | TGI (SR leukemia): > 100 µM | TGI (SNB-75 CNS): 61.9 µM | TGI (HT29 colon): 33.1 µM | TGI (NCI-H522 lung): 31 µM | TGI (NCI-H226 lung): 47.1 µM | TGI (K-562 leukemia): 25 µM | TGI (NCI-H460 lung): 44 µM | TGI (UACC-62 melanoma): 27.2 µM | TGI (OVCAR-8 ovarian): > 100 µM | TGI (T-47D breast): > 100 µM | TGI (SK-MEL-5 melanoma): 26.9 µM | TGI (HCT-15 colon): 58.2 µM | TGI (RPMI-8226 leukemia): 78 µM | TGI (SK-MEL-2 melanoma): 37.9 µM | TGI (RXF 393 renal): 28.7 µM | TGI (SK-MEL-28 melanoma): 64.5 µM | TGI (DU-145 prostate): > 100 µM | TGI (SNB-19 CNS): > 100 µM | TGI (HL-60(TB) leukemia): > 100 µM | TGI (SK-OV-3 ovarian): 74 µM | TGI (M14 melanoma): 31.8 µM | TGI (CCRF-CEM leukemia): 18.2 µM | TGI (IGROV1 ovarian): 64.7 µM | TGI (MALME-3M melanoma): 87.1 µM | TGI (SF-295 CNS): > 100 µM | TGI (A498 renal): > 100 µM | TGI (OVCAR-5 ovarian): 57.1 µM | TGI (NCI/ADR-RES ovarian): 43.3 µM | TGI (HOP-62 NSCLC): 32.6 µM | TGI (HCC-2998 colon): 55.7 µM | TGI (KM12 colon): 35.1 µM | TGI (MOLT-4 leukemia): 26 µM | TGI (UO-31 renal): 65.2 µM | TGI (MDA-MB-231 breast): 47.2 µM | TGI (HCT-116 colon): 31.3 µM | TGI (CAKI-1 renal): 52.9 µM | TGI (HOP-92 NSCLC): 30.7 µM
